The values below come from article PMC12079444, “Antagonist Targeting the Species‐Specific Fatty Acid Dehydrogenase/Isomerase FabX for Anti‐H. pylori Infection” (Advanced Science, 2025).

Values after ≈ are worked out from the molar mass of the structure shown.

Assay [1] concerns the target T1, FabX (Helicobacter pylori, UniProt O25465).
T1 construct: gene HP_0773; recombinant from pQE2 vector in E. coli BL21(DE3) Rosetta, Ni-NTA, HiTrap-SP, Superdex75; FMN and [4Fe-4S] cofactors
T1 sequence (O25465 1-363): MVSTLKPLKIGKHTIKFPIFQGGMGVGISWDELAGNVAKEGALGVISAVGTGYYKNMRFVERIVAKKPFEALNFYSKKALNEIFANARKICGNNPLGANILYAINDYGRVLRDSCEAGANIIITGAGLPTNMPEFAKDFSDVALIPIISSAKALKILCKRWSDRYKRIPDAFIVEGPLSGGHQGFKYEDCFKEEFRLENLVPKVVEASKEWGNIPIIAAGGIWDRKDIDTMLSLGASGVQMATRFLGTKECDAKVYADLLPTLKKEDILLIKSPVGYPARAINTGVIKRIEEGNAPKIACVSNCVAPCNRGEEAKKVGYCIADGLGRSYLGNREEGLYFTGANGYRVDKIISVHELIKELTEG
Put plainly: FabX-FabI coupled assay, NADH absorbance […] nm. Type of assay: biochemical. The following applies: read-out: FabX enzymatic activity / 10 × 10^-6 M [%].

The subject of assay [2] is T2, Helicobacter pylori G27.
T2 construct: G27
The assay is described as follows: microbe, parasite or virus in culture. Conditions: G27, read-out: MIC. The protocol:
(§1) The sensitivity of H. pylori strains to various compounds was assessed by determining the MIC and evaluating the growth of the strains on the drug‐containing agar media. The MIC was measured using the broth microdilution assay as described previously.^[ [27] ^] Twofold serial dilutions of the test compounds were prepared using BHI broth supplemented with 10% FCS in 96‐well microtiter plates. Diluted H. pylori cultures, adjusted to a final concentration of 5 × 10^5 CFU mL^−1, were then added to each well. The cultures were incubated for 48–72 h in a microaerobic environment at 37 °C. The MIC was determined by visual inspection. H. pylori strains used in this study were cultured on brain heart infusion (BHI) broth (Oxoid, UK) or Columbia blood agar medium (Oxoid, UK) supplemented with 10% fetal calf serum (FCS). The cultures were incubated at 37 °C for 48–72 h under microaerobic environments in a double‐gas CO2 incubator (Binder, Germany). The wild‐type strains G27 and NSH57 used in this study were kindly provided by Prof. Nina R. Salama from the Fred Hutchinson Cancer Research Center (USA). Three clinical H. pylori strains (BYES129, BY924, and JIGC0009) were isolated from biopsy samples from three patients with gastritis or gastric cancer using standard protocols. Strains BHKS551 (NSH57 IR0203::fabA ΔfabX) and BHKS568 (NSH57 IR0203::fabX ΔfabX) were described previously.^[ [19] ^] The following 15 reference strains of different species were also used: Escherichia coli ATCC 25922, Klebsiella pneumoniae ATCC 35657, Pseudomonas aeruginosa PAO1, Salmonella enterica serovar Typhimurium ATCC 14028, Shigella dysenteriae Sd197, Acinetobacter baumannii ATCC 19606, Proteus mirabilis ATCC 29906, Enterobacter cloacae ATCC 13047, Stenotrophomonas maltophilia ATCC 51331, Bacillus subtilis 168, Enterococcus faecium ATCC 19434, Staphylococcus aureus ATCC 25923, Staphylococcus haemolyticus ATCC 29970, Listeria monocytogenes EGDe, and Morganella morganii ATCC 25830. These non‐Helicobacter bacterial strains were cultured as described previously.^[ [25] ^] We evaluated the antibacterial activities of selected compounds (IC 50 < 1 × 10^−6 M) against several H. pylori strains (Table S3∖, Supporting Information), particularly against strains BHKS551 and BHKS211 (the FabX overexpressed strain, hereinafter referred to as FabX^OE) to validate the on‐target effect in vivo. Note that FabX is overproduced 3.32‐fold in strain BHKS211 compared to the control strain BHKS210 carrying the empty vector (Figure S3, Supporting Information). […] This could be due to the fact that the carboxyl group of 8j readily deprotonates and acquires negative charge at physiological pH, which reduces its lipophilicity and prevents it from permeating the bacterial cell membrane. To address this issue, we employed a prodrug strategy and synthesized esters from 8j by attaching it to lipophilic alcohols (8p‐8u) or a lipophilic cation 6‐hydroxyhexyltriphenylphosphonium bromide (8v) (Figure 3). […] Compounds 8p‐8s were synthesized as shown in Scheme 1, while compounds 8t‐8v were synthesized as described in Scheme 3 . 8q was hydrolyzed with NaOH to yield 8j, which was subsequently reacted with various alcohols by Steglich esterification to produce compounds 8t‐8v.

For assay [3], the system named is T3, Helicobacter pylori BHKS 210.
T3 construct: BHKS210 (NSH57/empty vector pTM117) wild-type NSH57 with empty vector
Put plainly: microbe, parasite or virus in culture. Conditions: BHKS210, read-out: MIC. The protocol:
as §1

Assay [4] concerns T4, Helicobacter pylori BHKS 568.
T4 construct: BHKS568 (NSH57 IR0203::fabX ΔfabX) native fabX relocated to IR0203
Put plainly: microbe, parasite or virus in culture. The following applies: BHKS568, read-out: MIC. The protocol:
as §1

In assay [5] the target is T1, FabX. The assay is described as follows: X-ray crystal structure, […] Å. The assay is classed as binding. Conditions: bound cofactor in the complex with FBX-1991.
For assay [6], the system named is T5, Helicobacter pylori Hp129.
T5 construct: Hp129
The assay is described as follows: microbe, parasite or virus in culture. Conditions: HP129, read-out: MIC. The protocol: as §1

For assay [7], the target named is T1, FabX. Put plainly: FabX-FabI coupled assay, NADH absorbance […] nm. Type of assay: biochemical.
In assay [8] the target is T1, FabX. The assay is described as follows: isothermal titration calorimetry. Type of assay: binding.
Assay [9] concerns the target T1, FabX. Put plainly: biochemical. The following applies: read-out: % inhibition. Details: FabX inhibition in multienzymatic cascade coupled to FabI, NADH consumption read-out. From the text: To discover small molecule inhibitors targeting FabX, we performed protein thermal shift assay (PTSA) based high‐throughput screening against an in‐house chemical library of 11000 small molecule compounds, and established a multienzymatic cascade reaction system by incorporating the enoyl acyl carrier protein reductase FabI from H. pylori into the hit validation system, where FabI catalyzes the reduction of FabX catalytic product enoyl‐ACP in the fourth step of the elongation cycle, accompanying the elimination of NADH (Figure 2A,B). […] The subcloning, expression, and purification of FabX, FabI, and ACP from H. pylori, FabK from S. pneumoniae, and FabA from E. coli were described previously.^[ [19] ^] Briefly, fabX, fabI, fabK, and fabA genes were subcloned to pQE2 vector, while the Acp gene was subcloned to pET32a vector, respectively. The proteins were expressed in BL21(DE3) Rosetta cells, purified by using Ni‐NTA affinity column, HiTrap‐SP column, GE HiLoad 16/600 Superdex75 prep grade gel‐filtration column. The peaks from the gel‐filtration column were further pooled, concentrated, and the final concentration of the proteins was quantified by the Bradford reagent purchased from Bio‐Rad.

`O=C(OCCCCCC[P+](c1ccccc1)(c1ccccc1)c1ccccc1)c1cccc(NS(=O)(=O)c2cccnc2Nc2ccc(Cl)cc2Cl)c1` [8v]: in [1], the inhibition at 10 µM was determined as 42%. Further, the MIC in [2] came to 32 µg/mL; in assay [3], 16 µg/mL; in assay [4], 16 µg/mL.
`Cc1cc2nc3c(=O)[nH]c(=O)nc-3n(C[C@H](O)[C@H](O)[C@H](O)COP(=O)(O)O)c2cc1C` [FMN]: the “X-ray crystal structure, 2.00 Å” value in [5] is “binds in the region between the FMN cofactor and the catalytic tunnel of FabX”.
Consider `CC(C)(C)OC(=O)c1cccc(NS(=O)(=O)c2cccnc2Nc2ccc(Cl)cc2Cl)c1` [8s], for which the inhibition at 10 µM in assay [1] came to 10%. The MIC in assay [2] worked out at 64 µg/mL (≈ 129 µM); in assay [3], 32 µg/mL (≈ 64.7 µM); in assay [6], 32 µg/mL (≈ 64.7 µM); in assay [4], 32 µg/mL (≈ 64.7 µM).
Consider `O=C(O)c1cccc(NS(=O)(=O)c2cccnc2Nc2ccc(Cl)cc2Cl)c1` [8j, FBX-1872], for which the MIC is above 64 µg/mL in assay [2], above 128 µg/mL in assay [3], above 64 µg/mL in assay [6] and above 64 µg/mL in assay [4]. In addition, 437 ± 42 nM corresponded to half-maximal inhibition in assay [7] (IC50). In assay [8], this compound displayed a Kd of 435 ± 46 nM. Moreover, the inhibition at 1 µM in assay [9] was 65%. Also, in [9], the inhibition at 10 µM is 100%.
With `CC(C)OC(=O)c1cccc(NS(=O)(=O)c2cccnc2Nc2ccc(Cl)cc2Cl)c1` [8r], the inhibition at 10 µM in [1] was determined as 37%. Moreover, the MIC is 64 µg/mL (≈ 133 µM) in assay [2], 32 µg/mL (≈ 66.6 µM) in [3], 32 µg/mL (≈ 66.6 µM) in assay [6] and 32 µg/mL (≈ 66.6 µM) in assay [4].
